Values joined by “and” are separate entries in the source; they are usually repeats but may differ in a detail not shown here. Equal entries are not always repeated.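 A five-concentration, 48-hour dose response in 96-well plates underlies each endpoint, interpolated linearly between surrounding concentrations. At the GI50, growth is halved. TGI: total growth inhibition.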

Here are results for 37 compounds from PubChem BioAssay (NCI).

The first experiment has as its system M19-MEL melanoma. Kind of experiment: NCI tumour cell line growth inhibition, 48 h.
Regarding `COc1cc2c(OC)cc1CSCc1sc(C)c(c1Br)CSC2`, the TGI was over 100 µM. `CC(C)N(C(=O)C12C3C4C1(I)C1C2C3(I)C41C(=O)N(C(C)C)C(C)C)C(C)C` (configuration not stated): the TGI is over 70.9 µM. Same read-out and setting: the same measure for `Cc1cccc(C)c1NC(=O)C(=O)C(C(=O)c1ccccc1-c1ccccc1)C1OC(=O)c2ccccc21` (configuration not stated): 34.7 µM; for `CC1COC(C)(C)P(=O)(c2ccccc2)C1` (configuration not stated): over 100 µM.

As to `Cc1ccc(S(=O)(=O)c2ccc(N)cc2)cc1`, the TGI is over 100 µM.

Regarding `COC(=O)[C@H]1C=C[C@@H](C)n2c(=O)c3cc4ccccc4cc3c(=O)n21`, the TGI is over 100 µM. The same measure, in the same setting: with `COc1cc(C=O)c(-c2cc(OC)c(OC)cc2C=O)cc1OC` the figure was over 100 µM. On the same count and under the same terms, the same measure for `N#CC(C(=O)C(=O)Nc1ccc(Cl)cc1)c1ccccc1` (configuration not stated): over 100 µM. Take `COc1c[c]([Hg][O]C(C)=O)c(OC)c(NC(=O)CC(C)=O)[c]1[Hg][O]C(C)=O`: the GI50 was 8.85 µM and the TGI came to 22 µM.

With `COC(=O)/C=C1\CCC(C)O1` (configuration not stated), the TGI was over 100 µM.

Take `O=C(/C=C/c1ccccc1Cl)NC1C=Nc2ccc([N+](=O)[O-])cc2NC1` (configuration not stated): the TGI was over 100 µM.

For `CC[C@H]1CN2CCc3cc(OC)c(OC)cc3[C@@H]2C[C@@H]1C[C@H]1NCCc2c1[nH]c1ccc(O)cc21`, the GI50 was 0.0164 µM and 0.0241 µM; the TGI was 0.0461 µM and 0.076 µM and < 0.0112 µM. `CCCO/S(=N\S(=O)(=O)c1ccccc1)c1ccccc1[N+](=O)[O-]` (configuration not stated): the TGI is over 100 µM.

Regarding `Cc1ccc(C)c(N=C2NC(=O)C(CC(=O)Nc3ccc(Cl)cc3Cl)S2)c1` (configuration not stated), the TGI was over 100 µM. Same read-out and setting: with `C/C(CC(=O)Nc1cccc(Cl)c1C)=N\NC(=O)c1ccncc1` the figure was over 100 µM. On the same count and under the same terms, with `Cc1cc(NS(=O)(=O)c2ccc(Nc3c4ccccc4nc4c(C(=O)N5CCN(CCO)CC5)ccc(Cl)c34)cc2)no1` the figure was over 100 µM. In turn, `O=C(O)CC(NC(=O)CP(=O)(O)O)C(=O)O` (configuration not stated) had a TGI of over 10000 µM. Same read-out and setting: the same measure for `Cc1nc([N+](=O)[O-])cn1CC(=N)N`: over 100 µM; for `COC(=O)/C=C/c1c(CC=C(C)C)ncn1C`: over 100 µM. On the same count and under the same terms, the same measure for `CC(C)C(=O)Nc1nc2c(ncn2C2OC(CO)C(O)C2O)c(=O)[nH]1` (configuration not stated): over 100 µM; for `O=S(=O)(c1ccccc1)C1CN2OC1(S(=O)(=O)c1ccccc1)CC2c1ccc(Br)cc1` (configuration not stated): over 100 µM. Same read-out and setting: the same measure for `O=Cc1ccc2c(c1-c1c(C=O)ccc3c1OCO3)OCO2`: over 100 µM.

`CC(=O)O[C@H]1CCC2[C@@H]3CCC4Nc5[nH]ncc5C[C@]4(C)C3CC[C@@]21C` (some centres not stated) returned a TGI of over 100 µM.

On to `Cc1cc(C)nc(NS(=O)(=O)c2ccc(NC(=O)c3cccc4c(Nc5ccc(S(N)(=O)=O)cc5)c5ccccc5nc34)cc2)n1`, for which the TGI was found to be 46.5 µM. In turn, `Cc1cc(S(=O)(=O)O)c(NC(=O)C(=O)Cc2cc(=O)oc3cc(O)ccc23)cc1Cl` had a TGI of over 100 µM.

For the next experiment, the system named is MDA-N. Nature of the experiment: NCI tumour cell line growth inhibition, 48 h.
In the case of `COc1ccc(-c2coc3c4c(ccc3c2=O)OCO4)cc1OC`, the TGI is over 100 µM.

Take `CC(C)(S)C(N)C(=O)O` (configuration not stated): the TGI was over 100 µM. Still for that read-out and setting: the same measure for `O=C(O)c1ccc(OCc2ccccc2)c(Cl)c1`: over 100 µM; for `CCOc1ccncc1[N+](=O)[O-]`: over 100 µM; for `Cc1nc2sc3c(c2c(=O)[nH]1)CCCC3`: over 100 µM. For the compound `CC[C@H]1CN2CCc3cc(OC)c(OC)cc3[C@@H]2C[C@@H]1C[C@H]1NCCc2c1[nH]c1ccc(O)cc21`, the GI50 is 0.0234 µM; the TGI is 0.0568 µM and 0.182 µM. The compound `CC(=O)Oc1ccccc1C(=O)Nc1ncc([N+](=O)[O-])s1` came in with a TGI of over 90.1 µM. For `O=C(O)CC(NC(=O)CP(=O)(O)O)C(=O)O` (configuration not stated), the GI50 was 54.1 µM and the TGI is over 10000 µM. Turning to `O=CN1CCN(CC(O)CN2CCCCC2)CC1` (configuration not stated), the TGI is over 100 µM. Still for that read-out and setting: the same measure for `OCc1ccn2c1[C@@H](O)CC2`: over 100 µM. On the same count and under the same terms, with `Cc1[nH]c(/C=C2\C(=O)Nc3ccccc32)c(C)c1CCC(=O)O` the figure was over 100 µM; with `c1ccc2c(c1)c1c(c3ccccc32)CN2CCCC2C1` (configuration not stated), 14.2 µM.

In another experiment the test system is P388 leukemia. Nature of the experiment: NCI tumour cell line growth inhibition, 48 h.
The compound `O=C(O)CC(NC(=O)CP(=O)(O)O)C(=O)O` (configuration not stated) had a TGI of over 5860 µM.

The subject of another experiment is P388/ADR leukemia. Nature of the experiment: NCI tumour cell line growth inhibition, 48 h.
Consider `CC[C@H]1CN2CCc3cc(OC)c(OC)cc3[C@@H]2C[C@@H]1C[C@H]1NCCc2c1[nH]c1ccc(O)cc21`, for which the TGI was over 100 µM. The same measure, in the same setting: the same measure for `O=C(O)CC(NC(=O)CP(=O)(O)O)C(=O)O` (configuration not stated): over 8350 µM.

A further experiment concerns RXF-631 renal. Nature of the experiment: NCI tumour cell line growth inhibition, 48 h.
In the case of `CC(C)C(=O)NS(=O)(=O)c1ccccc1`, the TGI was over 100 µM. Consider `COc1cc2c(OC)cc1CSCc1sc(C)c(c1Br)CSC2`, for which the TGI is over 100 µM. `CC(C)N(C(=O)C12C3C4C1(I)C1C2C3(I)C41C(=O)N(C(C)C)C(C)C)C(C)C` (configuration not stated) gave a TGI of over 100 µM. In the case of `Cc1cccc(C)c1NC(=O)C(=O)C(C(=O)c1ccccc1-c1ccccc1)C1OC(=O)c2ccccc21` (configuration not stated), the TGI is over 100 µM.

In turn, `Cc1ccc(S(=O)(=O)c2ccc(N)cc2)cc1` returned a TGI of over 100 µM. Still for that read-out and setting: the same measure for `CCOP(=O)(OCC)OC1C=CC2CCC1C2` (configuration not stated): over 100 µM; for `COC(=O)[C@H]1C=C[C@@H](C)n2c(=O)c3cc4ccccc4cc3c(=O)n21`: over 100 µM; for `N#CC(C(=O)C(=O)Nc1ccc(Cl)cc1)c1ccccc1` (configuration not stated): over 100 µM. The same measure, in the same setting: with `COC(=O)/C=C1\CCC(C)O1` (configuration not stated) the figure was over 100 µM. On the same count and under the same terms, the same measure for `CCCO/S(=N\S(=O)(=O)c1ccccc1)c1ccccc1[N+](=O)[O-]` (configuration not stated): over 100 µM; for `Cc1cc(NS(=O)(=O)c2ccc(Nc3c4ccccc4nc4c(C(=O)N5CCN(CCO)CC5)ccc(Cl)c34)cc2)no1`: over 100 µM.

Turning to `Cc1nc([N+](=O)[O-])cn1CC(=N)N`, the TGI is over 100 µM. Still for that read-out and setting: with `COC(=O)/C=C/c1c(CC=C(C)C)ncn1C` the figure was over 100 µM.
